Results published in patent US8481531B2, “Bicyclic heterocyclyl derivatives as FGFR kinase inhibitors for therapeutic use” (Astex Therapeutics Ltd, priority 2009, dated 2013).

How the values were obtained:
FGFR3 = target: T1, FGFR3 (Homo sapiens, UniProt P22607); assay: FGFR3 in vitro kinase inhibitory activity assay (TRF); type: biochemical; conditions: 8 μM ATP, 3 hours; read-out: FGFR3 IC50(μM) or % I
T1 construct: purchased Upstate
Experimental: (§1) FGFR3, VEGFR2 and PDGFR in vitro Kinase Inhibitory Activity Assays
(§2) Enzymes (from Upstate), prepared at 2× final concentration, were incubated with test compounds, biotinylated Flt3 substrate (biotin-VASSDNEYFYVDF) (Cell Signalling Technology Inc.) and ATP in the appropriate assay buffer (Table 1). The reaction was allowed to proceed for 3 hours (FGFR3), 1 hour (VEGFR2, PDGFR-beta) at room temperature on a plate shaker at 700 rpm before being stopped with 35 mM EDTA, pH 8 (FGFR3, VEGFR2) or 55 mM EDTA, pH 8 (PDGFR-beta). 5× detection mix (50 mM HEPES pH 7.5, 0.1% BSA, 11.34 nM Eu-anti-pY (PY20) (PerkinElmer) 74 nM SA-XL665 (Cisbio) for FGFR3, 50 mM HEPES, pH 7.5, 0.1% BSA, 11.34 nM Eu-anti-pY (PY20), 187.5 nM SA-XL665 for VEGFR2 and 50 mM HEPES, pH 7.5, 0.1% BSA, 11.34 nM Eu-anti-pY (PT66) (PerkinElmer), 375 nM SA-XL665 (Cisbio) for PDGFR-beta) was then added to each well and the plate sealed and incubated at room temperature for one hour on a plate shaker at 700 rpm. The plate was then read on a Packard Fusion plate reader or a BMG Pherastar both in TRF mode.

[1] = system: parental wild-type Ba/F3 cells; assay: Ba/F3 (WT) cell proliferation assay (Alamar Blue); type: cell-based; conditions: BaF3, 72 hours, read-out: BaF3 WT prolif; for IC50: with mouse IL-3
Experimental: (§3) Ba/F3-TEL-FGFR3 & Ba/F3 (WT) Cell Proliferation Assays
(§4) Stably transfected Ba/F3-TEL-FGFR3 cells were plated out into black 96-well tissue culture plates with clear bottoms in RPMI medium containing 10% FBS and 0.25 mg/ml G418 at a density of 5×10^3 cells/well (200 μl per well). The parental wild-type Ba/F3 cells (DSMZ no.: ACC 300) were plated out into black 96-well tissue culture plates with clear bottoms in RPMI medium containing 10% FBS and 2 ng/ml mouse IL-3 (R&D Systems) at a density of 2.5×10^3 cells/well (200 μl per well). Plates were placed in an incubator overnight before adding the compounds the following day. Dilutions of compounds were made in DMSO starting at 10 mM and were diluted into the wells to give a final DMSO concentration of 0.1% in assay. Compounds were left on the cells for 72 hours before the plates were removed from the incubator and 20 μl of Alamar Blue™ (Biosource) was added to each well. Plates were placed in the incubator for 4-6 hours before reading plates at 535 nm (excitation)/590 nm (emission) on a Fusion plate reader (Packard). Where inhibition is high an IC50 can be determined.

VEGFR2 = target: T2, VEGFR2 (Homo sapiens, UniProt P35968); assay: VEGFR2 in vitro kinase inhibitory activity assay (TRF); type: biochemical; conditions: 0.5 μM ATP, 1 hour; read-out: VEGFR2 IC50(μM) or % I
T2 construct: purchased Upstate
T2 sequence (P35968 20-1356): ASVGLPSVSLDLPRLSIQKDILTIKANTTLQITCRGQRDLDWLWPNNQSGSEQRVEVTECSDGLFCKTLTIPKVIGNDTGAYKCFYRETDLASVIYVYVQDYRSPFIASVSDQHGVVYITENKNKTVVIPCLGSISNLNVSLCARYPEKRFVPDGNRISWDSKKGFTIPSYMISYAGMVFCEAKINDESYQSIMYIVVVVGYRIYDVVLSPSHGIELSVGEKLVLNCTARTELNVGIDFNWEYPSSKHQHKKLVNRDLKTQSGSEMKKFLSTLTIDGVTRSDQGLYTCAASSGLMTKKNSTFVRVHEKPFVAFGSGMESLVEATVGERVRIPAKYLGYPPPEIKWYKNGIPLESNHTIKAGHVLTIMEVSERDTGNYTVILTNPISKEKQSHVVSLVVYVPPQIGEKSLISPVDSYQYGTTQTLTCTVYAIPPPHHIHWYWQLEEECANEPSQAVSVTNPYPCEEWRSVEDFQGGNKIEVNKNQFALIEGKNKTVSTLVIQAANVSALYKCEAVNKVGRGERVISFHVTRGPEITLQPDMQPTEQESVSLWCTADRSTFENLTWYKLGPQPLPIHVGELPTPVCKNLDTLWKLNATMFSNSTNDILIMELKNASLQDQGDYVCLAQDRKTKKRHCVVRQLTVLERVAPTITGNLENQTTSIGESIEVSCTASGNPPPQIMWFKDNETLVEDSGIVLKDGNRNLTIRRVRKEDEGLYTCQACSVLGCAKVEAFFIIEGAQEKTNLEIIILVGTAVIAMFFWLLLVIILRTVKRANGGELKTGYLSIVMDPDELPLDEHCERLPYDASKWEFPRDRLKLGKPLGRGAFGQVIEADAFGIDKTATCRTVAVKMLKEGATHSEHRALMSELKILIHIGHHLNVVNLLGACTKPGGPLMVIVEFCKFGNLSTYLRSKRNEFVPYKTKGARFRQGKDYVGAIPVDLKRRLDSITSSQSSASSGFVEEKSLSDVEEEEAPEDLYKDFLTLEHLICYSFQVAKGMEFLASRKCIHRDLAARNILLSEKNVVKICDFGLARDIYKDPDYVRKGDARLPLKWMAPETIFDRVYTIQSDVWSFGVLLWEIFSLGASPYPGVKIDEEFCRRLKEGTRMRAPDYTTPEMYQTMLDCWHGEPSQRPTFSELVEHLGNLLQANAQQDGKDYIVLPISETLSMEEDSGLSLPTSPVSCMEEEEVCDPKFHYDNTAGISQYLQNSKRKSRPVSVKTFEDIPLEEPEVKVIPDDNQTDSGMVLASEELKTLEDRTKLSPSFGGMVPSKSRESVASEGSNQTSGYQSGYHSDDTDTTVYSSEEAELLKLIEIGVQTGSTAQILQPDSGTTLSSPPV
Experimental: as §1, §2

Ba/F3-TEL-FGFR3 cells = target: T3, Ba/F3-TEL-FGFR3 cells (Homo sapiens, UniProt P22607); assay: Ba/F3-TEL-FGFR3 cell proliferation assay (Alamar Blue); type: cell-based; conditions: 72 hours; read-out: BaF3-TEL-FGFR3 prolif
T3 construct: fused on or other part: P41212 (Transcription factor ETV6)
T3 sequence (P22607 whole entry, change not shown, the tested form may be a part): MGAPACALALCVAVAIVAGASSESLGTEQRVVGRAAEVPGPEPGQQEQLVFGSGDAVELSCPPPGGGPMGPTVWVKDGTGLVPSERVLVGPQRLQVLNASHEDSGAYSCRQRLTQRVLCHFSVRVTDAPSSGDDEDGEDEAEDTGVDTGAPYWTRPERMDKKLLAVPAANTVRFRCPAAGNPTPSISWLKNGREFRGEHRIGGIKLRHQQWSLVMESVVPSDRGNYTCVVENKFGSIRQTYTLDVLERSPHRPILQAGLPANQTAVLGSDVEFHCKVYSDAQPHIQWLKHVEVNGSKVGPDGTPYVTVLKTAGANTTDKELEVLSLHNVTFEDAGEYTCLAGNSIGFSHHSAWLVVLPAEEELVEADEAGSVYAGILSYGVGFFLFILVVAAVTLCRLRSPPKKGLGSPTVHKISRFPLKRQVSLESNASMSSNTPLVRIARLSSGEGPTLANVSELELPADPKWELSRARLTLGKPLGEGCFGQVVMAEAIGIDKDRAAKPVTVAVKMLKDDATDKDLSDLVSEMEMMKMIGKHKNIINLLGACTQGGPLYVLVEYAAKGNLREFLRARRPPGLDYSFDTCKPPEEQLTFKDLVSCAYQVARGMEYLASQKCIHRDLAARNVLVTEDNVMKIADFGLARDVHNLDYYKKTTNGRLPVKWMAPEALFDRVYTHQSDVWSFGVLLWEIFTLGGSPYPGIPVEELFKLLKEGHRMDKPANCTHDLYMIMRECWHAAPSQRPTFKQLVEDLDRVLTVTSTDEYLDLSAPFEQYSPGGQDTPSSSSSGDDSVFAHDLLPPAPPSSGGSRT
Experimental: as §3, §4

T1 sequence (P22607 23-806): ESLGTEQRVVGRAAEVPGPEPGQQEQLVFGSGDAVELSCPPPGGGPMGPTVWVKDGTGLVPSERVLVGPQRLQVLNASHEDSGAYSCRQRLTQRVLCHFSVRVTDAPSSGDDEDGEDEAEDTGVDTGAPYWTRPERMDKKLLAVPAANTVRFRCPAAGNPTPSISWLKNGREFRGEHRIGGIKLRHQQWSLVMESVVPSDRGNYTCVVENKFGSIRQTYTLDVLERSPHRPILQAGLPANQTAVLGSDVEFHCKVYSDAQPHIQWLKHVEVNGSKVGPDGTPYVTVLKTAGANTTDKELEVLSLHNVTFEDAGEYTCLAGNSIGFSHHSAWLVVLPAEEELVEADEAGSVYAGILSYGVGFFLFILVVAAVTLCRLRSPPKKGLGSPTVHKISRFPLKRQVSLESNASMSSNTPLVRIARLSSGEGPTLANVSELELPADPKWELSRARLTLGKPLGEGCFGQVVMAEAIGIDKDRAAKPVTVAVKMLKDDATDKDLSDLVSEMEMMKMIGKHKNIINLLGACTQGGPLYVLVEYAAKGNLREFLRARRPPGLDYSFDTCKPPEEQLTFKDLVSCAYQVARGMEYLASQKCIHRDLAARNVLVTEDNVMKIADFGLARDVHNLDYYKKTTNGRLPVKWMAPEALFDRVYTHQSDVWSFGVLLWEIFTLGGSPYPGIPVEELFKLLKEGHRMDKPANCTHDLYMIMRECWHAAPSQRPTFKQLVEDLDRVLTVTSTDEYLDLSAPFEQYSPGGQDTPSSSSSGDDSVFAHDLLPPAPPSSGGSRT

IC50 (FGFR3) [µM]	IC50 (VEGFR2) [µM]	GI50 (Ba/F3-TEL-FGFR3 cells) [µM]	SMILES	inhibition at 1 µM ([1]; Mus musculus, % at 1.00 μM) [%]	IC50 [1] [µM]	inhibition at 10 µM ([1]; Mus musculus) [%]
0.03	0.66	0.3	Cc1cc(CON=Cc2ccn3c(-c4cccc(NC(=O)NCC(F)(F)F)c4)cnc3c2)n(C)n1 [Compound 1-13, 1-(3-{7-[(2,5-Dimethyl-2H-pyrazol-3-ylmethoxyimino)-methyl]-imidazo[1,2-a]pyridin-3-yl}-phenyl)-3-(2,2,2-trifluoro-ethyl)-urea]	46		
0.215	> 10	0.0175	O=C(NCC(F)(F)F)Nc1cccc(-c2cnc3cc(C=NOCc4ccc(Cl)s4)ccn23)c1 [Compound 1-8, 1-(3-{7-[(5-Chloro-thiophen-2-ylmethoxyimino)-methyl]-imidazo[1,2-a]pyridin-3-yl}-phenyl)-3-(2,2,2-trifluoro-ethyl)-urea]		0.828	
0.026	0.73	4.9	CS(=O)(=O)CCNCCON=Cc1ccn2c(-c3cccc(NC(=O)NCC(F)(F)F)c3)cnc2c1 [Compound 1-52, 1-[3-(7-{[2-(2-Methanesulfonyl-ethylamino)-ethoxyimino]-methyl}-imidazo[1,2-a]pyridin-3-yl)-phenyl]-3-(2,2,2-trifluoro-ethyl)-urea]			25
0.019	0.885	0.29	COCCOCCON=Cc1ccn2c(-c3cccc(NC(=O)NCC(F)(F)F)c3)cnc2c1 [Compound 1-2, 1-[3-(7-{[2-(2-Methoxy-ethoxy)-ethoxyimino]-methyl}-imidazo[1,2-a]pyridin-3-yl)-phenyl]-3-(2,2,2-trifluoro-ethyl)-urea]		1.6	
0.0045	0.083	0.12	CCC(=NO)c1ccn2c(-c3cccc(NC(=O)NCC(F)(F)F)c3)cnc2c1 [Compound 1-26, 1-[3-(7-{1-Hydroxyimino-propyl}-imidazo[1,2-a]pyridin-3-yl)-phenyl]-3-(2,2,2-trifluoro-ethyl)-urea]			40
0.019	0.4	0.24	O=C(NCC(F)(F)F)Nc1cccc(-c2cnc3cc(/C=N/OCCCO)ccn23)c1 [Compound 1-18, 1-(3-{7-[(3-Hydroxy-propoxyimino)-methyl]-imidazo[1,2-a]pyridin-3-yl}-phenyl)-3-(2,2,2-trifluoro-ethyl)-urea]		4.7	
0.023	0.4	0.6	COCCN1CCC(CCON=Cc2ccn3c(-c4cccc(NC(=O)NCC(F)(F)F)c4)cnc3c2)CC1 [Compound 1-48, 1-{3-[7-({2-[1-(2-Methoxy-ethyl)-piperidin-4-yl]-ethoxyimino}-methyl)-imidazo[1,2-a]pyridin-3-yl]-phenyl}-3-(2,2,2-trifluoro-ethyl)-urea]		1.8	
0.028	0.27	3.5	O=C(NCC(F)(F)F)Nc1cccc(-c2cnc3cc(C=NOCCCNC4CCOCC4)ccn23)c1 [Compound 1-37, 1-[3-(7-{[3-(Tetrahydro-pyran-4-ylamino)-propoxyimino]-methyl}-imidazo[1,2-a]pyridin-3-yl)-phenyl]-3-(2,2,2-trifluoro-ethyl)-urea]			43
0.018	0.61	1.3	Nc1nc(CON=Cc2ccn3c(-c4cccc(NC(=O)NCC(F)(F)F)c4)cnc3c2)cs1 [Compound 1-16, 1-(3-{7-[(2-Amino-thiazol-4-ylmethoxyimino)-methyl]-imidazo[1,2-a]pyridin-3-yl}-phenyl)-3-(2,2,2-trifluoro-ethyl)-urea]			19
0.023	1.34	0.47	CC(C)Oc1cc(NC(=O)NCC(F)(F)F)cc(-c2cnc3cc(/C(=N/O)C4CC4)ccn23)c1 [Compound 1-31, 1-[3-(7-{Cyclopropyl-hydroxyimino-methyl}-imidazo[1,2-a]pyridin-3-yl)-5-isopropoxy-phenyl]-3-(2,2,2-trifluoro-ethyl)-urea]		6.2	
0.0019	0.03	0.046	C/C(=N\O)c1ccn2c(-c3cccc(NC(=O)NCC(F)(F)F)c3)cnc2c1 [Compound 1-21, 1-[3-(7-{1-Hydroxyimino-ethyl}-imidazo[1,2-a]pyridin-3-yl)-phenyl]-3-(2,2,2-trifluoro-ethyl)-urea]			17
0.08	1.2	1.3	CON=C(c1ccn2c(-c3cccc(NC(=O)NCC(F)(F)F)c3)cnc2c1)C1CCC1 [Compound 1-27, 1-[3-(7-{Cyclobutyl-methoxyimino-methyl}-imidazo[1,2-a]pyridin-3-yl)-phenyl]-3-(2,2,2-trifluoro-ethyl)-urea]		1.5	
0.021	0.62	0.5	O=C(NCC(F)(F)F)Nc1cccc(-c2cnc3cc(C=NOCCO)ccn23)c1 [Compound 1-54, 1-(3-{7-[(2-Hydroxy-ethoxyimino)-methyl]-imidazo[1,2-a]pyridin-3-yl}-phenyl)-3-(2,2,2-trifluoro-ethyl)-urea]		0.51	
0.0038	0.059		C/C(=N\OCCCN1CCOCC1)c1ccn2c(-c3cccc(NC(=O)NCC(F)(F)F)c3)cnc2c1 [Compound 1-44, 1-[3-(7-{1-3-Morpholin-4-yl-propoxyimino-ethyl}-imidazo[1,2-a]pyridin-3-yl)-phenyl]-3-(2,2,2-trifluoro-ethyl)-urea]			
0.03	1.2	0.5	CC(C)Oc1cc(NC(=O)NCC(F)(F)F)cc(-c2cnc3cc(/C(=N\OCCO)C4CC4)ccn23)c1 [Compound 1-64, 1-[3-(7-{Cyclopropyl-[(Z)-2-hydroxyethoxyimino]-methyl}-imidazo[1,2-a]pyridin-3-yl)-5-isopropoxy-phenyl]-3-(2,2,2-trifluoro-ethyl)-urea]			
0.0071	0.36		Cn1cncc1CO/N=C/c1ccn2c(-c3cccc(NC(=O)NCC(F)(F)F)c3)cnc2c1 [Compound 1-20, 1-(3-{7-[(3-Methyl-3H-imidazol-4-ylmethoxyimino)-methyl]-imidazo[1,2-a]pyridin-3-yl}-phenyl)-3-(2,2,2-trifluoro-ethyl)-urea]			
0.013	0.48		O=C(NCC(F)(F)F)Nc1cccc(-c2cnc3cc(C=NOCc4ccccn4)ccn23)c1 [Compound 1-6, 1-(3-{7-[(Pyridin-2-ylmethoxyimino)-methyl]-imidazo[1,2-a]pyridin-3-yl}-phenyl)-3-(2,2,2-trifluoro-ethyl)-urea]			
0.0051	0.092		CO/N=C(\C)c1ccn2c(-c3cccc(NC(=O)NCC(F)(F)F)c3)cnc2c1 [Compound 1-22]			
0.014	0.68		Cc1nc(CON=Cc2ccn3c(-c4cccc(NC(=O)NCC(F)(F)F)c4)cnc3c2)cs1 [Compound 1-9, 1-(3-{7-[(2-Methyl-thiazol-4-ylmethoxyimino)-methyl]-imidazo[1,2-a]pyridin-3-yl}-phenyl)-3-(2,2,2-trifluoro-ethyl)-urea]			
0.028	0.72		COCCN(C)CCON=Cc1ccn2c(-c3cccc(NC(=O)NCC(F)(F)F)c3)cnc2c1 [Compound 1-40, 1-{3-[7-({2-[(2-Methoxy-ethyl)-methyl-amino]-ethoxyimino}-methyl)-imidazo[1,2-a]pyridin-3-yl]-phenyl}-3-(2,2,2-trifluoro-ethyl)-urea]			
